According to US20240269139A1, “COMPOUNDS FOR TARGETED PROTEIN DEGRADATION OF KINASES” (DANA-FARBER CANCER INSTITUTE, INC., priority 2020, published 2024):
Like-named read-outs stand apart in the source and are kept apart here.

Legend:
Format in all cases: cell-based
[1] = system: protein kinases (human kinome); conditions: for logFC of SRC: Accession P12931-2; for logFC MAPK8: MAPK8 P45983-4; for logFC RPS6KA1: RPS6KA1 (Q15418-2)
[2] = target: protein kinases (human kinome) (Homo sapiens, UniProt P16591); conditions: for logFC of FER (P16591-1): down; for logFC of FER: FER P16591-1
Sequence of protein kinases (human kinome) (Homo sapiens, UniProt P16591) (P16591 whole entry): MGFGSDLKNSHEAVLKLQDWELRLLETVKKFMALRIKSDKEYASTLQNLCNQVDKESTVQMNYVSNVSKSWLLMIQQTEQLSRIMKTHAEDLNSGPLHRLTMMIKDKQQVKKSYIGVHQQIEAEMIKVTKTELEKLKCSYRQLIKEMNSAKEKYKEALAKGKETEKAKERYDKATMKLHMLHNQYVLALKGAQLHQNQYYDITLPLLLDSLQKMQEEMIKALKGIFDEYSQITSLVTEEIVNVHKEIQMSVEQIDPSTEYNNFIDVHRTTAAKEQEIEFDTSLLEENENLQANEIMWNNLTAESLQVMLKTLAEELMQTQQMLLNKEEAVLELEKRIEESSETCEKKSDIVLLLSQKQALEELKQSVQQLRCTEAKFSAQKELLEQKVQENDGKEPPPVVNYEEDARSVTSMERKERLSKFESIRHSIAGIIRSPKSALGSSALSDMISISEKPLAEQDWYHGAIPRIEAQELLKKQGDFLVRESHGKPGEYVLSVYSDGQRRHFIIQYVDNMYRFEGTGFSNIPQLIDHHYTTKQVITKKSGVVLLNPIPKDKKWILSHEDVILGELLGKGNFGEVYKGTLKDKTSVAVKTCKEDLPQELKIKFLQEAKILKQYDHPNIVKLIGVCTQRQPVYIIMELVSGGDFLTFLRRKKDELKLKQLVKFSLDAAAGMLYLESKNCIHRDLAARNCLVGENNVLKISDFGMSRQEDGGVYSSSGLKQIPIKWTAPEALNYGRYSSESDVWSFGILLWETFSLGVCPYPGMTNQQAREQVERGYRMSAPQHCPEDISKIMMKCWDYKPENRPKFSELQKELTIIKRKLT

[3] = target: protein kinases (human kinome) (Homo sapiens, UniProt Q2M2I8); conditions: experiment wp146
Sequence of protein kinases (human kinome) (Homo sapiens, UniProt Q2M2I8) (Q2M2I8 whole entry): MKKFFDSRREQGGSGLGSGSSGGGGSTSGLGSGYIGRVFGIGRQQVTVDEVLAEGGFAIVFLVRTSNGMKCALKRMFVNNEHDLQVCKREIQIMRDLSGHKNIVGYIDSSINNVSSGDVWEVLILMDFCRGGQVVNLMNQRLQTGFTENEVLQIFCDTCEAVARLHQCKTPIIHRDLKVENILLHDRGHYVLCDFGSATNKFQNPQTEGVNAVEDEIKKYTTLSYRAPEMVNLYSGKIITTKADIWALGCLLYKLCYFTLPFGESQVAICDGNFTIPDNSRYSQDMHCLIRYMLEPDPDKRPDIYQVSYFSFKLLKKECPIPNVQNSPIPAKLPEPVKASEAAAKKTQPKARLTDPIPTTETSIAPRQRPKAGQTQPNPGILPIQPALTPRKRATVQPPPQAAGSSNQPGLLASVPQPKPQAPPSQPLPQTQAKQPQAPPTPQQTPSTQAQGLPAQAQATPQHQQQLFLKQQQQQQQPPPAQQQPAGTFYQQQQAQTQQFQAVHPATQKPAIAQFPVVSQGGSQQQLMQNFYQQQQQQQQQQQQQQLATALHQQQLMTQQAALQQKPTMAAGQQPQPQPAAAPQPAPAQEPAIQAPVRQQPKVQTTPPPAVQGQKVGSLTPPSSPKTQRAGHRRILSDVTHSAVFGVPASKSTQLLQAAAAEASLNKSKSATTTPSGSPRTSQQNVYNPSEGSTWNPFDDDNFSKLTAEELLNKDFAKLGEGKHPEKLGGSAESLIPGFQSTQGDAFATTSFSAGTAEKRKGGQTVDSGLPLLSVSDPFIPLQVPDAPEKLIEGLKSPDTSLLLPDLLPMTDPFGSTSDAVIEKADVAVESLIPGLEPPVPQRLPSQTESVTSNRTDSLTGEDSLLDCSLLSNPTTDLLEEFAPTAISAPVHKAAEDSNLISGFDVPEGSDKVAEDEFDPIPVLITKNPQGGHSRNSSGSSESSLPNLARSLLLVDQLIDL

[4] = target: protein kinases (human kinome) (Homo sapiens, UniProt P53671); conditions: for logFC LIMK2: LIMK2 (P53671), down; for logFC of LIMK2: LIMK2 P53671
Sequence of protein kinases (human kinome) (Homo sapiens, UniProt P53671) (P53671 whole entry): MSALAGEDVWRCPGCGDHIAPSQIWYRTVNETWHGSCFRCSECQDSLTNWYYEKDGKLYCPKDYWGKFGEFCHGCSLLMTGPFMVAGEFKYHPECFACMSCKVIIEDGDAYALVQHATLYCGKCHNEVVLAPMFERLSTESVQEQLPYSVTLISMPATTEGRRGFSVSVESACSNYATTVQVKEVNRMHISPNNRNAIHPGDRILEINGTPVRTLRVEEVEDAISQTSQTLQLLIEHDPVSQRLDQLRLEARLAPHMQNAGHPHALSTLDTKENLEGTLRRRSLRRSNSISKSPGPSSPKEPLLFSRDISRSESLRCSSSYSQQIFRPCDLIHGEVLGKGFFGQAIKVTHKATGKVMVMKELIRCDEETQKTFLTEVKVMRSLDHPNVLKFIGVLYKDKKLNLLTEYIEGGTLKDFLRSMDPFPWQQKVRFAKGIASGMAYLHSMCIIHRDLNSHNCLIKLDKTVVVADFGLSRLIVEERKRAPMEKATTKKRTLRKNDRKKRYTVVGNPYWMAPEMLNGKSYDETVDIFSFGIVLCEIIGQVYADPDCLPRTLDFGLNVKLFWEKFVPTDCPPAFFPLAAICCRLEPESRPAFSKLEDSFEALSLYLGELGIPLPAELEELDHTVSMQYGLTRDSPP

[5] = SRC (P12931-2) protein abundance, degrader vs DMSO, down
[6] = AAK1, accession Q2M218-1, direction of change down
[7] = AURKB Q96GD4-5, experiment wp146
[8] = Accession P49841-2, experiment wp146, direction down
[9] = CDK9 (P50750-2) protein abundance, degrader vs DMSO, down
[10] = CLK1 P49759-3, experiment wp146
[11] = Experiment wp146, direction down
[12] = GSK3B P49841-2, experiment wp146

## Nc1ncnc2c1c(-c1ccc(Oc3ccccc3)cc1)nn2[C@H]1CC[C@H](N2CCN(CCOCCNC(=O)CNc3cccc4c3C(=O)N(C3CCC(=O)NC3=O)C4=O)CC2)CC1 (stereo partly shown) [SB1.G.181]
[1]; ABL1 (P00519-2), experiment wp071
  logFC ABL1: −1.735
[1]; Accession P06241-2, experiment wp071
  logFC FYN: −2.276
[1]; experiment wp071
  logFC of SRC: −2.478
  logFC ABL1 (P00519-2): −1.735
[1]; FYN P06241-2, experiment wp071
  logFC FYN: −2.276
[1]; LCK, accession P06239-3, experiment wp071, direction of change down
  logFC LCK: −1.774
[1]; [5]
  logFC: −2.478
[1]; experiment wp071, direction of change down
  logFC LCK (P06239-3): −1.774

## CC(C)S(=O)(=O)c1ccccc1Nc1nc(Nc2ccc(N3CCN(CCOCCNC(=O)CNc4cccc5c4C(=O)N(C4CCC(=O)NC4=O)C5=O)CC3)cc2)ncc1Cl (stereo not shown) [SK-3-91]
[1]; MOLT-4, KELLY, HEK293T
  targets with significantly different degrader efficacy in the different cell lines with no obvious difference in protein expression: SIK2, LIMK1, FAK
[1]; kinases significantly downregulated vs DMSO (fold change cutoff −1.25, P-value<0.01), ≤8 h, 0.1-5 μM degrader, 7 cell lines
  Kinase hits: AAK1, ABL1, ABL2, AKT2, AKT3, AURKA, AURKB, BCKDK, BLK, BMP2K, BMPR1A, BUB1, BUB1B, CDC7, CDK10, CDK12, CDK13, CDK14, CDK16, CDK17, CDK18, CDK2, CDK4, CDK5, CDK6, CDK7, CDK9, CO18A, CSK, CSNK1D, EPHB2, EPHB4, FER, FYN, GAK HIPK1, ITK, LATS1,
[1]; number of degraded kinases per library compound
  Total no. kinase hits: 89

## Cc1ccc(C(=O)Nc2ccc(CN3CCN(CCOCCOCCNC(=O)CNc4cccc5c4C(=O)N(C4CCC(=O)NC4=O)C5=O)CC3)c(C(F)(F)F)c2)cc1C#Cc1cnc2cccnn12 (stereo not shown) [TL13.150]
[2]; Experiment wp081
  logFC of FER (P16591-1): −1.511
[2]; experiment wp081
  logFC of FER: −1.511
[1]; experiment wp081
  logFC of SRC: −0.5331
[1]; MAPK14, accession Q16539-2, experiment wp081, direction of change down
  logFC MAPK14: −0.5025
[1]; MAPK14 Q16539-2, experiment wp081
  logFC MAPK14: −0.5025
[1]; [5]
  logFC: −0.5331

## NC(=O)c1c(F)cccc1Nc1nc(Nc2ccc(S(=O)(=O)NCCOCCOCCOCCOCCNc3cccc4c3C(=O)N(C3CCC(=O)NC3=O)C4=O)cc2)ncc1Br (stereo not shown) [TMX.02.138]
[2]; Experiment wp146
  logFC of FER (P16591-1): −0.8083
[2]; experiment wp146
  logFC of FER: −0.8083
[3]; AAK1 (Q2M218-1), down
  logFC AAK1: −1.129
[3]; [6]
  logFC AAK1: −1.129
[1]; [7]
  logFC: −1.832
  logFC AURKB: −1.832
[1]; [8]
  logFC GSK3B: −0.604
[1]; [9]
  logFC: −1.889
[1]; [10]
  logFC: −0.4648
  logFC CLK1: −0.4648
[1]; [11]
  logFC MAPK8 (P45983-4): −0.9813
  logFC PRKAA1 (Q13131-2): −0.7125
[1]; [12]
  logFC GSK3B: −0.604
[1]; experiment wp146
  logFC MAPK8: −0.9813
  logFC RPS6KA1: −0.501
  logFC CDK9 (P50750-2): −1.889
  logFC CDK16 (Q00536-2): −1.434
  logFC PRKAA1 (Q13131-2): −0.7125
  logFC RPS6KA1 (Q15418-2): −0.501

## Cc1cc(Nc2ncc(Br)c(Nc3cccc(F)c3C(N)=O)n2)ccc1S(=O)(=O)NCCOCCOCCOCCOCCNc1cccc2c1C(=O)N(C1CCC(=O)NC1=O)C2=O (stereo not shown) [TMX.02.174]
[2]; Experiment wp146
  logFC of FER (P16591-1): −1.089
[2]; experiment wp146
  logFC of FER: −1.089
[3]; AAK1 (Q2M218-1), down
  logFC AAK1: −1.62
[3]; [6]
  logFC AAK1: −1.62
[1]; [7]
  logFC: −1.578
  logFC AURKB: −1.578
[1]; [8]
  logFC GSK3B: −0.6472
[1]; [9]
  logFC: −1.666
[1]; [10]
  logFC: −0.4606
  logFC CLK1: −0.4606
[1]; [11]
  logFC MAPK8 (P45983-4): −0.7761
  logFC PRKAA1 (Q13131-2): −1.622
[1]; [12]
  logFC GSK3B: −0.6472
[1]; experiment wp146
  logFC MAPK8: −0.7761
  logFC RPS6KA1: −0.6638
  logFC CDK9 (P50750-2): −1.666
  logFC CDK16 (Q00536-2): −1.176
  logFC PRKAA1 (Q13131-2): −1.622
  logFC RPS6KA1 (Q15418-2): −0.6638
[1]; experiment wp146, direction of change down
  logFC NEK1 (Q96PY6-3): −0.3871
[1]; protein NEK1 (Q96PY6-3), experiment wp146, down
  logFC NEK1: −0.3871

## Nc1ncc(-c2ccc(S(=O)(=O)N(CCCNC(=O)CCOCCOCCOCCOCCOCCNc3cccc4c3C(=O)N(C3CCC(=O)NC3=O)C4=O)C3CC3)cc2)cc1-c1ccc2c(c1)CCNC2=O (stereo not shown) [WH.10417.099]
[4]; experiment wp103
  logFC LIMK2: −0.5747
  logFC of LIMK2: −0.5747
[4]; experiment wp107
  logFC LIMK2: −0.3744
  logFC of LIMK2: −0.3744
[1]; Accession P48730-2, experiment wp056, direction down
  logFC CSNK1D: −1.455
[1]; Accession P48730-2, experiment wp103, direction down
  logFC CSNK1D: −1.301
[1]; Accession P48730-2, experiment wp107, direction down
  logFC CSNK1D: −1.248
[1]; Accession P48730-2, experiment wp172, direction down
  logFC CSNK1D: −0.6401
[1]; Accession P49841-2, experiment wp056, direction down
  logFC GSK3B: −1.294
[1]; Accession P49841-2, experiment wp103, direction down
  logFC GSK3B: −1.442
[1]; Accession P49841-2, experiment wp105, direction down
  logFC GSK3B: −0.8403
[1]; Accession P49841-2, experiment wp107, direction down
  logFC GSK3B: −1.446
[1]; CSNK1A1 (P48729-2), experiment wp107
  logFC: −2.428
[1]; CSNK1D P48730-2, experiment wp056
  logFC CSNK1D: −1.455
[1]; CSNK1D P48730-2, experiment wp103
  logFC CSNK1D: −1.301
[1]; CSNK1D P48730-2, experiment wp107
  logFC CSNK1D: −1.248
[1]; CSNK1D P48730-2, experiment wp172
  logFC CSNK1D: −0.6401
[1]; Experiment wp107
  logFC of CSNK1A1 (P48729-2): −2.428
[1]; GSK3B P49841-2, experiment wp056
  logFC GSK3B: −1.294
[1]; GSK3B P49841-2, experiment wp103
  logFC GSK3B: −1.442
[1]; GSK3B P49841-2, experiment wp105
  logFC GSK3B: −0.8403
[1]; GSK3B P49841-2, experiment wp107
  logFC GSK3B: −1.446
